The results in this text go back to patent US8106197B2, “Aminoheteroaryl compounds as protein kinase inhibitors” (Pfizer Inc., priority 2003, dated 2012).

The target in this test is T1, HGFR (Homo sapiens, UniProt P08581).
T1 construct: purchased Upstate 14-526
In words: HGFR continuous-coupled spectrophotometric assay. The test is classed as biochemical. Particulars: for inhibition at 1 µM: Table 6, percent c-MET inhibition at 1 μM, read-out: % inhibition; for I(%): test concentration not given.

T1 sequence (P08581 974-1390 limits assumed): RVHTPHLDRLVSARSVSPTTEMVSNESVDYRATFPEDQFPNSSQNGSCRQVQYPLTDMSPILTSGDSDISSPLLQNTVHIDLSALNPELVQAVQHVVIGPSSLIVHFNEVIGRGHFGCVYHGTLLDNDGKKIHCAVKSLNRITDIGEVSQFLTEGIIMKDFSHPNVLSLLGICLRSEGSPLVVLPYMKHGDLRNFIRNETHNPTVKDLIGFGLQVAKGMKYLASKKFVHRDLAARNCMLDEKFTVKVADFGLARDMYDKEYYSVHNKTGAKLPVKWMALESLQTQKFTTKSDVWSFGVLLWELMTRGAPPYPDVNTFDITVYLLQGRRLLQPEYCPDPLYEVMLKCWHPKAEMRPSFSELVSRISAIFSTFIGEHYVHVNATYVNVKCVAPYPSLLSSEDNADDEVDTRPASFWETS

In the case of `Nc1ncc(C(=O)NCCCN2CCOCC2)cc1OCc1c(Cl)cccc1Cl`, the inhibition at 1 µM came out at 26%.
Take `Nc1ncc(C(=O)NCc2ccc(S(N)(=O)=O)cc2)cc1OCc1c(Cl)cccc1Cl`: the inhibition at 1 µM worked out at 30%.
For the molecule `N#CC1(c2ccccc2)CCN(C(=O)c2cnc(N)c(OCc3c(Cl)cccc3Cl)c2)CC1`, the inhibition at 1 µM came out at 37%.
Still for that read-out and setting: for `Nc1ncc(C(=O)N2CCC(O)CC2)cc1OCc1c(Cl)cccc1Cl` the value was 35%; for `Nc1ncc(C(=O)NCc2ccc(O)cc2)cc1OCc1c(Cl)cccc1Cl`, 37%; for `Nc1ncc(C(=O)N2CCN(c3ccccn3)CC2)cc1OCc1c(Cl)cccc1Cl`, 34%.
The same measure, in the same setting: for `Nc1ncc(C(=O)NCc2ccccc2Br)cc1OCc1c(Cl)cccc1Cl` the value was 36%; for `COc1ccc(CNC(=O)c2cnc(N)c(OCc3c(Cl)cccc3Cl)c2)c(OC)c1`, 59%; for `Nc1ncc(C(=O)NCCc2ccccc2F)cc1OCc1c(Cl)cccc1Cl`, 33%.
On the same count and under the same terms, the same measure for `Nc1ncc(C(=O)NCc2ccccc2OC(F)(F)F)cc1OCc1c(Cl)cccc1Cl`: 31%.
On to `CC(C)NC(=O)CN1CCN(C(=O)c2cnc(N)c(OCc3c(Cl)cccc3Cl)c2)CC1`, for which the inhibition at 1 µM was determined as 30%.
Same read-out and setting: the same measure for `Nc1ncc(C(=O)N2CCN(CCOCCO)CC2)cc1OCc1c(Cl)cccc1Cl`: 33%; for `CCN(CC)C(=O)C1CCCN(C(=O)c2cnc(N)c(OCc3c(Cl)cccc3Cl)c2)C1` (stereo not drawn): 33%.
On the same count and under the same terms, the same measure for `Nc1ncc(C(=O)N2CCN(CCO)CC2)cc1OCc1c(Cl)cccc1Cl`: 51%.
In the case of `CN1CCN(C(=O)c2cnc(N)c(OCc3c(Cl)cccc3Cl)c2)CC1`, the inhibition at 1 µM worked out at 32%.
Same read-out and setting: the same measure for `Nc1ncc(C(=O)N2CCN(CC(=O)N3CCCC3)CC2)cc1OCc1c(Cl)cccc1Cl`: 32%.
Still for that read-out and setting: the same measure for `Nc1ncc(C(=O)N2CCCCC2CCO)cc1OCc1c(Cl)cccc1Cl` (stereo not drawn): 33%; for `Nc1ncc(C(=O)N2CCC3(CC2)CC(CCc2ccnnc2)CO3)cc1OCc1c(Cl)cccc1Cl` (stereo not drawn): 37%.
As to `CCc1ccc(COCC2CCN(C(=O)c3cnc(N)c(OCc4c(Cl)cccc4Cl)c3)CC2)nc1`, the inhibition at 1 µM was determined as 41%.
Regarding `Cc1ccn2cc(CNC(=O)c3cnc(N)c(OCc4c(Cl)cccc4Cl)c3)nc2n1`, the inhibition at 1 µM was found to be 45%.
On the same count and under the same terms, the same measure for `Nc1ncc(C(=O)N2CCn3c(CO)nnc3C2)cc1OCc1c(Cl)cccc1Cl`: 31%; for `Nc1ncc(C(=O)NCc2cn3cc(Cl)ccc3n2)cc1OCc1c(Cl)cccc1Cl`: 38%; for `Nc1ncc(C(=O)N2CCC(COc3cccc4cccnc34)C2)cc1OCc1c(Cl)cccc1Cl` (stereo not drawn): 35%.
For the molecule `Nc1ncc(C(=O)N2CCC3(CC2)CC3C(=O)NCC2CC2)cc1OCc1c(Cl)cccc1Cl` (stereo not drawn), the inhibition at 1 µM was 32%.
Still for that read-out and setting: the same measure for `Nc1ncc(C(=O)N2CCC3(CC2)COC(CCc2cc(O)n[nH]2)C3)cc1OCc1c(Cl)cccc1Cl` (stereo not drawn): 34%.
Consider `Cn1ccnc1SCC1(O)CCCN(C(=O)c2cnc(N)c(CCc3c(Cl)cccc3Cl)c2)CC1` (stereo not drawn), for which the inhibition at 1 µM came to 35%.
Consider `CC(C)CNC(=O)c1ccc(Cl)c(CNC(=O)c2cnc(N)c(OCc3c(Cl)cccc3Cl)c2)c1`, for which the inhibition at 1 µM turned out to be 47%.
In the case of `COC(=O)c1ccc(-c2cnc(N)c(OC(C)c3c(Cl)ccc(F)c3Cl)c2)c(C)c1` (stereo not drawn) [Example I-548, 4-{6-Amino-5-[1-(2,6-dichloro-3-fluoro-phenyl)-ethoxy]-Pyndin-3-yl}-3-methyl-benzoic acid methyl ester], the “I(%)” value (Table 3, Ki(μM) or I(%)) was 17%.
On the same count and under the same terms, for `COc1cc(C(=O)N2C[C@@H](C)N[C@@H](C)C2)cc(OC)c1-c1cnc(N)c(OC(C)c2c(Cl)ccc(F)c2Cl)c1` (stereo partly drawn) [Example I-550, (4-{6-Amino-5-[1-(2,6-dichloro-3-fluoro-phenyl)-ethoxy]-pyridin-3-yl)-3,5-dimethoxy-phenyl)-(dimethyl-piperazin-1-yl)-methanone] the value was 15%; for `CCOc1ccccc1-c1cnc(N)c(OC(C)c2c(Cl)ccc(F)c2Cl)c1` (stereo not drawn) [Example I-555, 3-[1-(2,6-Dichloro-3-fluoro-phenyl)-ethoxy]-5-(2-ethoxy-phenyl)-pyridin-2-ylamine], 22%; for `COc1cccc(OC)c1-c1cnc(N)c(OC(C)c2c(Cl)ccc(F)c2Cl)c1` (stereo not drawn) [Example I-558, 3-[1-(2,6-Dichloro-3-fluoro-phenyl)-ethoxy]-5-(2,6-dimethoxy-phenyl)-pyridin-2-ylamine], 2%.
With `CC(Oc1cc(-c2ccccc2C(F)(F)F)cnc1N)c1c(Cl)ccc(F)c1Cl` (stereo not drawn) [Example I-559, 3-[1-(2,6-Dichloro-3-fluoro-phenyl)-ethoxy]-5-(2-trifluoromethyl-phenyl)-pyridin-2-ylamine], the “I(%)” value (Table 3, Ki(μM) or I(%)) is recorded as 4%.
Same read-out and setting: the same measure for `CC(Oc1cc(-c2ccccc2Cl)cnc1N)c1c(Cl)ccc(F)c1Cl` (stereo not drawn) [Example I-560, 5-(2-Chloro-phenyl)-3-[1-(2,6-dichloro-3-fluoro-phenyl)-ethoxy]-pyridin-2-ylamine]: 24%; for `CC(Oc1cc(-c2ccccc2OC(F)(F)F)cnc1N)c1c(Cl)ccc(F)c1Cl` (stereo not drawn) [Example I-561, 3-[1-(2,6-Didiloro-3-fluoro-phenyl)-ethoxy]-5-(2-trifluoromethoxy-phenyl)-pyridin-2-ylamine]: 14%; for `CC(=O)c1ccccc1-c1cnc(N)c(OC(C)c2c(Cl)ccc(F)c2Cl)c1` (stereo not drawn) [Example I-562, 1-(2-{6-Amino-5-[1-(2,6-dichloro-3-fluoro-phenyl)-ethoxy]-pyridin-3-yl}-phenyl)-ethanone]: 8%.
`CC(Oc1cc(-c2ccccc2F)cnc1N)c1c(Cl)ccc(F)c1Cl` (stereo not drawn) [Example I-563, 3-[1-(2,6-Dichloro-3-fluoro-phenyl)-ethoxy]-5-(2-fluoro-phenyl)-pyridin-2-ylamine] came in with a Ki (Table 3, Ki(μM) or I(%)) of 0.433 µM.
Consider `CC(Oc1cc(-c2ccccc2CO)cnc1N)c1c(Cl)ccc(F)c1Cl` (stereo not drawn) [Example I-564, (2-{6-Amino-5-[1-(2,6-dichloro-3 fluoro-phenyl)-ethoxy]pyridin-3-yl}-phenyl)-methanol], for which, for the setting “Table 3, Ki(μM) or I(%)”, the “I(%)” value was 21%.
On the same count and under the same terms, for `Cc1ccccc1-c1cnc(N)c(OC(C)c2c(Cl)ccc(F)c2Cl)c1` (stereo not drawn) [Example I-565, 3-[1-(2,6-Dichloro-3-fluoro-phenyl)-ethoxy]-5-o-tolyl-pyridin-2-ylamine] the value was 25%.
In the case of `Cc1cccc(C)c1-c1cnc(N)c(OC(C)c2c(Cl)ccc(F)c2Cl)c1` (stereo not drawn) [Example I-567, 3-[1-(2,6-Dichloro-fluoro-pheny)-ethoxy]-5-(2,6-dimethylphenyl)-pyridin-2-ylamine], the “I(%)” value (Table 3, Ki(μM) or I(%)) turned out to be 0%.
On the same count and under the same terms, for `CC(Oc1cc(CNC2CCN(Cc3ccccc3)C2)cnc1N)c1c(Cl)ccc(F)c1Cl` (stereo not drawn) [Example I-608, 5-[(1-Benzyl-pyrrolidin-3-ylamino)-methyl]-3-[1-(2,6-dichloro-3-fluoro-phenyl)-ethoxy]-pyridin-2-ylamine] the value was 0%; for `CC(Oc1cc(-c2ccc(C(=O)N3C[C@@H](C)N[C@@H](C)C3)cc2)cnc1N)c1ccccc1C(F)(F)F` (stereo partly drawn) [Example I-616], 3%.
On the same count and under the same terms, for `CC(Oc1cc(-c2ccc(C(=O)N3C[C@@H](C)N[C@@H](C)C3)cc2)cnc1N)c1cccc(C(F)(F)F)c1` (stereo partly drawn) [Example I-617, (4-{6-Amino-5-[1-(3-trifluoromethyl-phenyl)-ethoxy]-pyridin-3-yl]-phenyl)-(3,5-dimethyl-piperazin-1-yl)-methanone] the value was 2%; for `C[C@@H]1CN(C(=O)c2ccc(-c3cnc4c(c3)OC(c3ccccc3)C(=O)N4)cc2)C[C@H](C)N1` (stereo partly drawn) [Example I-618, 7-(4-(3,5-Dimethyl-piperazine-1-carbonyl)-phenyl]-2-phenyl-4H-pyrido[3,2-b](1,4]oxazin-3-one], 0%.
As for `C[C@@H]1CN(C(=O)c2ccc(-c3cnc(N)c(OCc4cccc(F)c4C(F)(F)F)c3)cc2)C[C@H](C)N1` [Example I-619, {4-[6-Amino-5-(3-fluoro-2-trifluoromethyl-benzyloxy)-pyridin-3-yl]-phenyl}-(3,5-dimethyl-piperazin-1-yl)-methanone], for the setting “Table 3, Ki(μM) or I(%)”, the “I(%)” value turned out to be 16%.
Same read-out and setting: for `CC1CN(C(=O)c2ccc(-c3cnc(N)c(OCc4c(F)cccc4F)c3)cc2)CC(C)N1` (stereo not drawn) [Example I-620, {4-[6-Amino-5-(2,6-difluoro-benzyloxy)-pyridin-3-yl]-phenyl}-(3,5-dimethyl-piperazin-1-yl)-methanone] the value was 5%; for `CC1CN(C(=O)c2ccc(-c3cnc(N)c(OCc4ccccc4)c3)cc2)CC(C)N1` (stereo not drawn) [Example I-621, {4-(6-Amino-5-benzyloxy-pyridin-3-yl)-phenyl]-(3,5-dimethyl-piperazin-1-yl)-methanone], 6%; for `CCN1CCN(C(=O)c2ccc(-c3cnc(N)c(OCc4ccccc4)c3)cc2)CC1` [Example I-623, [4-(6-Amino-5-benzyloxy-pyridin-3-yl)-phenyl]-(4-ethyl-piperazin-1-yl)-methanone], 7%.
For the molecule `Cc1ccccc1COc1cc(-c2ccc(C(=O)N3CC(C)NC(C)C3)cc2)cnc1N` (stereo not drawn) [Example I-624, {4-[6-Amino-5-(2-methyl-benzyloxy)-pyridin-3-yl]-phenyl}-(3,5-dimethyl-piperazin-1-yl)-methanone], the “I(%)” value (Table 3, Ki(μM) or I(%)) is recorded as 0%.
For `COC(=O)c1cccc(COc2cc(-c3ccc(C(=O)N4CCC(N5CCCC5)CC4)cc3)cnc2N)c1` [Example I-625, 3-{2-Amino-5-[4-(4-pyrrolidin-1-yl-piperidzne-1-carbonyl)-phenyl]-pyridin-3-yloxymethyl)-benzoic acid methyl ester], under “Table 3, Ki(μM) or I(%)”, the “I(%)” value was found to be 6%.
For `COC(=O)c1cccc(COc2cc(-c3ccc(C(=O)N4CC(C)NC(C)C4)cc3)cnc2N)c1` (stereo not drawn) [Example I-626, 3-{2-Amino-5-[4-(3,5-dimethyl-piperazine-1-carbonyl)-phenyl]-pyridin-3-yloxymethyl}-benzoic acid methyl ester], where the note is “Table 3, Ki(μM) or I(%)”, the “I(%)” value was determined as 0%.
On the same count and under the same terms, the same measure for `Cc1ccccc1COc1cc(-c2ccc(C(=O)N3CCC(N4CCCC4)CC3)cc2)cnc1N` [Example I-627, {4-[6-Amino-5-(2-methyl-benzxloxy)-pyridin-3-yl]-phenyl}-(4-pyrrolidin-1-yl-piperidin-1-yl)-methanone]: 6%.
